Assay results: ChEMBL document CHEMBL4842373, “C1'-Branched acyclic nucleoside phosphonates mimicking adenosine monophosphate: Potent inhibitors of Trypanosoma brucei adenine phosphoribosyltransferase” (Eur J Med Chem, 2021)

Test: Inhibition of Trypanosoma brucei adenine phosphoribosyltransferase expressed in Escherichia coli measured by spectrophotometric method
For `Nc1ncnc2c1ncn2C(COCP(=O)(O)O)C1CC1` (configuration not stated), the Ki was 5.84 µM. Work on `Nc1ncnc2c1ncn2[C@H](CCOCP(=O)(O)O)OCCO` yielded a Ki of 37.2 µM. `CO[C@H](COCP(=O)(O)O)n1cnc2c(N)ncnc21` showed a Ki of 9.88 µM. With `C#CC(COCP(=O)(O)O)n1cnc2c(N)ncnc21` (configuration not stated) the Ki was 26.7 µM. For `Nc1ncnc2c1ncn2C(COCCP(=O)(O)O)OCCO` (configuration not stated), the Ki was > 30 µM. In the case of `Nc1ncnc2c1ncn2C(CCP(=O)(O)O)OCCO` (configuration not stated), the Ki is reported as > 30 µM. With `Nc1ncnc2c1ncn2C(CO)COCP(=O)(O)O` (configuration not stated) the Ki was 19.7 µM. With `Nc1ncnc2c1ncn2[C@@H](COCc1ccccc1)COCP(=O)(O)O` the Ki was > 30 µM. In the case of `CO[C@@H](COCP(=O)(O)O)n1cnc2c(N)ncnc21`, the Ki is reported as > 30 µM. For `Nc1ncnc2c1ncn2C(COCP(=O)(O)O)C(F)(F)F` (configuration not stated), the Ki was > 30 µM. With `C=CC(COCP(=O)(O)O)n1cnc2c(N)ncnc21` (configuration not stated) the Ki was 16.3 µM. Work on `CC(C)[C@H](COCP(=O)(O)O)n1cnc2c(N)ncnc21` yielded a Ki of 0.57 µM. Compound `Nc1ncnc2c1ncn2C(COCP(=O)(O)O)OCCO` (configuration not stated) has a Ki of 6.1 µM. With `Nc1ncnc2c1ncn2C(CCOCP(=O)(O)O)OCCO` (configuration not stated) the Ki was 4.9 µM. With `CC[C@H](COCP(=O)(O)O)n1cnc2c(N)ncnc21` the Ki was 3.18 µM. With `CC(COCP(=O)(O)O)n1cnc2c(N)ncnc21` (configuration not stated) the Ki was > 30 µM. `CC(C)[C@@H](COCP(=O)(O)O)n1cnc2c(N)ncnc21` showed a Ki of 17.5 µM. With `CCO[C@@H](COCP(=O)(O)O)n1cnc2c(N)ncnc21` the Ki was > 30 µM. In the case of `Nc1ncnc2c1ncn2[C@@H](CCOCP(=O)(O)O)OCCO`, the Ki is reported as 1.56 µM. With `Nc1ncnc2c1ncn2C(CCOCP(=O)(O)O)OCCCO` (configuration not stated) the Ki was 3.21 µM. Work on `CCOC(COCP(=O)(O)O)n1cnc2c(N)ncnc21` (configuration not stated) yielded a Ki of 3.95 µM. `Nc1ncnc2c1ncn2[C@H](CO)COCP(=O)(O)O` showed a Ki of 15.4 µM. Work on `CCC(COCP(=O)(O)O)n1cnc2c(N)ncnc21` (configuration not stated) yielded a Ki of 11.8 µM. `COC(COCP(=O)(O)O)n1cnc2c(N)ncnc21` (configuration not stated) gave a Ki of 13.1 µM. In the case of `Nc1ncnc2c1ncn2[C@@H](COCP(=O)(O)O)C1CC1`, the Ki is reported as 2.95 µM. Compound `CCO[C@H](COCP(=O)(O)O)n1cnc2c(N)ncnc21` has a Ki of 2.39 µM. In the case of `Nc1ncnc2c1ncn2[C@H](COCc1ccccc1)COCP(=O)(O)O`, the Ki is reported as 39 µM.
